Results as given in patent US10213415B2, “Compounds as opioid receptor modulators” (JANSSEN PHARMACEUTICA NV, priority 2004, dated 2019).
Where “and” joins values, the source holds several entries; their conditions need not be identical. Equal values may be shown once. Read-outs that look alike come from different tables or passages of the source.

Experiments:
mu opioid receptor = target: T1, mu opioid receptor (Rattus norvegicus, UniProt P33535); assay: Rat Brain Mu Opioid Receptor Binding Assay (and Version 2a, [3H]DAMGO); details: rat forebrain membranes, margin of error 10-20%
T1 construct: from tissue; host or cells: forebrain of male Wistar rats
Outline: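 Rat forebrain membranes from male Wistar rats in 50 mM Tris-HCl pH 7.4 with 5 mM MgCl2 incubated with 0.8 nM [3H]DAMGO for 2.5 h at 25° C., then filtered and counted. Data given as % inhibition of specific binding at single concentrations or as Ki from concentration series.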

[1] = test system: novel environment-stressed mice; assay: In Vivo Assay-Stress-Induced Fecal Output (Fecal Output for 1 hr); design: species or system mouse; details: for response vs control in vivo at 30 mg/kg: Mus musculus, po, 1 h; for response vs control in vivo at 30 mg/kg / Fecal Output (# pellets) cpd: 30 mg/kg oral, 1 hr; for Fecal Output (# pellets) cpd: novel environment-stressed mice
Outline: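 Adult male Crl:CD-1(ICR) mice (˜30-35 g; at least 10 per dose group) were split into acclimated non-stressed controls, held individually for 16-18 hr in wire-mesh-bottom cages, and non-acclimated stressed groups. Mice were dosed intragastrically with vehicle or test compound in 0.5% methylcellulose, housed individually in novel cages over absorbent cardboard, and fecal pellets per mouse were counted hourly.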

[2] = target: T2, delta opioid receptor (CHO-hδ cell membranes) (Homo sapiens, UniProt P41143); assay: Delta Opioid Receptor Functional Assay: [35S]GTPγS Binding in CHO-hδ Cell Membranes, Version 1; type: biochemical; details: read-out: DOR GTP-binding Assay_v1 EC50
T2 construct: purchased Receptor Biology, Inc. (Baltimore, Md.); host or cells: CHO cells (recombinant expression)
Procedure: CHO-hδ cell membranes were purchased from Receptor Biology, Inc. (Baltimore, Md.). 10 mg/ml of membrane protein suspended in 10 mM TRIS-HC pH 7.2, 2 mM EDTA, 10% sucrose.
Membranes were maintained at 4-8° C. A portion (1 ml) of membranes was added into 15 mL cold binding assay buffer. The assay buffer contained 50 mM HEPES, pH 7.6, 5 mM MgCl2, 100 mM NaCl, 1 mM DTT and 1 mM EDTA. The membrane suspension was homogenized with a Polytron for 2 times and centrifuged at 3000 rpm for 10 min. The supernent was then centrifuged at 18,000 rpm for 20 min. The pellet was saved in a tube and 10 ml assay buffer was added into the tube. The pellet and buffer were mixed with a Polytron.
The pellet membranes (20 μg/ml) were preincubated with SPA (10 mg/ml) at 25° C. for 45 min in the assay buffer. The SPA (5 mg/ml) coupled with membranes (10 μg/ml) was then incubated with 0.5 nM [^35S]GTPγS in the same HEPES buffer containing 50 μM GDP in total volume of 200 μl. Increasing concentrations of receptor agonists were used to stimulate [^35S]GTPγS binding. The basal binding was tested in the absent agonists and no specific binding was tested in the present 10 μM unlabeled GTPγS. The data were analyzed on a Top counter.
Data The % of Basal=(stimulate−non specific)*100/(basal−non specific). EC50 values were calculated using a Prism program.

[3] = relative to novel environment stress (NES) vehicle group, read-out: Fecal Output cpd % NES
[4] = dose 3.0, oral, NES mice, vs acclimated control
[5] = dose 10.0, oral, NES mice, vs acclimated control
[6] = dose 30.0, oral, NES mice, vs acclimated control
[7] = relative to acclimated control, read-out: Fecal Output cpd % control

T2 sequence (P41143 whole entry): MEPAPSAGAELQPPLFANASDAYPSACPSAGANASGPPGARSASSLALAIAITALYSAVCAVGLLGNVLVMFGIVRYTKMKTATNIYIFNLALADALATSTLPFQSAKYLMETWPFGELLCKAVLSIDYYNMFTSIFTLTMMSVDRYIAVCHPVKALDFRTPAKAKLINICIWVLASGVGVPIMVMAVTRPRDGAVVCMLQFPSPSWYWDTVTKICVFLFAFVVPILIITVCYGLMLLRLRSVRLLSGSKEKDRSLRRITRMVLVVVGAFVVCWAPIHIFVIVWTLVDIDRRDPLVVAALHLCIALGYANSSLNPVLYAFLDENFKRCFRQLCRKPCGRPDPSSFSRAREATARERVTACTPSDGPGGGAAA
T1 sequence (P33535 whole entry): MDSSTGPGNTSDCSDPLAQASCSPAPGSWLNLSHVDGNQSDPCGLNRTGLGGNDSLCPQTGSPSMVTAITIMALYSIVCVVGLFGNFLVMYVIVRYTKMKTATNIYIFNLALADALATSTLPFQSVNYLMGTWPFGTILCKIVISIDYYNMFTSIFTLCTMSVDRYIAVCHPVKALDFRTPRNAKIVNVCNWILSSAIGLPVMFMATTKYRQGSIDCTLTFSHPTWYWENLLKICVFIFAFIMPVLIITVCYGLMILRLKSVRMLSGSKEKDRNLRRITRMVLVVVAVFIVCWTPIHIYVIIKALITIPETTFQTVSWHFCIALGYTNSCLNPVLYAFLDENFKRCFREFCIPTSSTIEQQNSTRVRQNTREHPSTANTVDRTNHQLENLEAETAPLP

Cc1cc(O)cc(C)c1C[C@H](N)C(=O)N(C)[C@@H](C)c1nc(-c2ccccc2)c[nH]1 [Cpd 207]
Ki (mu opioid receptor; read-out: r Ki μ): 0.05 nM and 0.08 nM and 0.1 nM | response vs control in vivo at 30 mg/kg [1, 3]: 49.6% | # of pellets, Compound (m) 0.3 ([1]; dose 0.3, oral, NES mice, fecal output 1 hr): 11.4 | Fecal pellet output, Compound (% control) 0.3 ([1]; dose 0.3, oral, NES mice, vs acclimated control): 219.2 % control | Fecal pellet output, Compound (% NES) 0.3 ([1]; dose 0.3, oral, vs vehicle NES group): 100 % NES | # of pellets, Compound (m) 0.5 ([1]; dose 0.5, oral, NES mice, fecal output 1 hr): 9.4 | Fecal pellet output, Compound (% control) 0.5 ([1]; dose 0.5, oral, NES mice, vs acclimated control): 195.8 % control | Fecal pellet output, Compound (% NES) 0.5 ([1]; dose 0.5, oral, vs vehicle NES group): 109 % NES | # of pellets, Compound (m) 3.0 ([1]; dose 3.0, oral, NES mice, fecal output 1 hr): 12 and 7.3 | Fecal pellet output, Compound (% control) 3.0 [1, 4]: 228.8 % control and 202.8 % control | Fecal pellet output, Compound (% NES) 3.0 ([1]; dose 3.0, oral, vs vehicle NES group): 104.4 % NES and 112.3 % NES | # of pellets, Compound (m) 5.0 ([1]; dose 5.0, oral, NES mice, fecal output 1 hr): 8.6 | Fecal pellet output, Compound (% control) 5.0 ([1]; dose 5.0, oral, NES mice, vs acclimated control): 179.2 % control | Fecal pellet output, Compound (% NES) 5.0 ([1]; dose 5.0, oral, vs vehicle NES group): 100 % NES | # of pellets, Compound (m) 6.0 ([1]; dose 6.0, oral, NES mice, fecal output 1 hr): 7.5 | Fecal pellet output, Compound (% control) 6.0 ([1]; dose 6.0, oral, NES mice, vs acclimated control): 220.6 % control | Fecal pellet output, Compound (% NES) 6.0 ([1]; dose 6.0, oral, vs vehicle NES group): 69.44 % NES | # of pellets, Compound (m) 10.0 ([1]; dose 10.0, oral, NES mice, fecal output 1 hr): 4.9 and 6.7 and 5.5 and 4.8 | Fecal pellet output, Compound (% control) 10.0 [1, 5]: 94.2 % control and 139.6 % control and 161.8 % control and 133.3 % control | Fecal pellet output, Compound (% NES) 10.0 ([1]; dose 10.0, oral, vs vehicle NES group): 42.98 % NES and 77.91 % NES and 50.93 % NES and 73.85 % NES | # of pellets, Compound (m) 30.0 ([1]; dose 30.0, oral, NES mice, fecal output 1 hr): 3.5 and 3.4 | Fecal pellet output, Compound (% control) 30.0 [1, 6]: 103 % control and 94 % control | Fecal pellet output, Compound (% NES) 30 ([1]; dose 30, oral, vs vehicle NES group): 32.41 % NES and 52.31 % NES | EC50 [2]: 8.65 nM and 12 nM

COc1ccc(CN(C(=O)[C@@H](N)Cc2ccc(C(N)=O)cc2)[C@@H](C)c2nc(-c3ccccc3)c[nH]2)cc1C(=O)O [Cpd 4]
Ki (mu opioid receptor; read-out: r Ki μ): 2.41 nM

COC(=O)c1cc(CN(C(=O)[C@@H](N)Cc2c(C)cc(C(N)=O)cc2C)[C@@H](C)c2nc(-c3ccccc3)c[nH]2)ccc1OC [Cpd 17]
Ki (mu opioid receptor; read-out: r Ki μ): 0.22 nM

CCN(C(=O)[C@@H](N)Cc1ccc(O)cc1)[C@H](C)c1nc(-c2ccccc2)c[nH]1 [Cpd 214]
Ki (mu opioid receptor; read-out: r Ki μ): 44 nM | EC50 [2]: 26000 nM

C[C@H](c1nc(-c2ccccc2)c[nH]1)N(C)C(=O)[C@@H](N)Cc1ccc(C(N)=O)cc1 [Cpd 203]
Ki (mu opioid receptor; read-out: r Ki μ): 29.1 nM | EC50 [2]: 515 nM

Cc1cc(O)cc(C)c1C[C@H](N)C(=O)N(Cc1ccnc2ccccc12)[C@@H](C)c1nc(-c2ccccc2)c[nH]1 [Cpd 246]
Ki (mu opioid receptor; read-out: r Ki μ): 0.15 nM

Cc1cc(O)cc(C)c1C[C@H](N)C(=O)N(Cc1nc(-c2cc(C(F)(F)F)cc(C(F)(F)F)c2)c(C)[nH]1)C(C)C [Cpd 164]
Ki (mu opioid receptor; read-out: r Ki μ): 0.38 nM | EC50 [2]: 2500 nM

C[C@@H](c1nc(-c2ccccc2)c[nH]1)N(Cc1ccccc1)C(=O)[C@@H](N)Cc1ccc(O)cc1 [Cpd 219]
Ki (mu opioid receptor; read-out: r Ki μ): 0.87 nM | EC50 [2]: 3560 nM

C[C@H](c1nc(-c2ccccc2)c[nH]1)N(Cc1ccccc1)C(=O)[C@@H](N)Cc1ccc(O)cc1 [Cpd 221]
Ki (mu opioid receptor; read-out: r Ki μ): 0.36 nM | EC50 [2]: 308 nM

COc1ccc(CN(C(=O)[C@@H](N)Cc2c(C)cc(C(N)=O)cc2C)[C@@H](C)c2nc(-c3ccccc3)c[nH]2)cc1OC [Cpd 75]
Ki (mu opioid receptor; read-out: r Ki μ): 0.51 nM | Fecal pellet output, Compound (% control) 3.0 [1, 4]: 223.8 % control | Fecal pellet output, Compound (% control) 10.0 [1, 5]: 188.1 % control | Fecal pellet output, Compound (% control) 30.0 [1, 6]: 100 % control

Cc1cc(O)cc(C)c1C[C@H](N)C(=O)N(Cc1nc(-c2ccccc2)c(C)[nH]1)C(C)C [Cpd 166]
Ki (mu opioid receptor; read-out: r Ki μ): 0.03 nM and 0.07 nM | EC50 [2]: 21 nM and 71 nM

CCN(C(=O)[C@@H](N)Cc1ccc(O)cc1)[C@@H](C)c1nc(-c2ccccc2)c[nH]1 [Cpd 215]
Ki (mu opioid receptor; read-out: r Ki μ): 0.43 nM | EC50 [2]: 1060 nM

Cc1cc(O)cc(C)c1C[C@H](N)C(=O)N(Cc1nc(-c2ccccc2)c[nH]1)C1CCCCC1 [Cpd 190]
Ki (mu opioid receptor; read-out: r Ki μ): 2.61 nM | EC50 [2]: 3830 nM

Cc1cc(C(N)=O)cc(C)c1C[C@H](N)C(=O)N(Cc1ccc(C(=O)O)o1)[C@@H](C)c1nc(-c2ccccc2)c[nH]1 [Cpd 256]
Ki (mu opioid receptor; read-out: r Ki μ): 7.08 nM

COc1ccc(CN(C(=O)[C@@H](N)Cc2c(C)cc(C(N)=O)cc2C)[C@@H](C)c2nc(-c3ccccc3)c[nH]2)cc1C(=O)O [Cpd 18]
Ki (mu opioid receptor; r Ki μ): 0.75 nM and 1.1 nM | Fecal Output (# pellets) cpd [1]: 3.1 pellets | response vs control in vivo at 30 mg/kg [1, 7]: 138% | response vs control in vivo at 30 mg/kg [1, 3]: 82.7%

COc1ccc(CN(C(=O)[C@@H](N)Cc2ccc(O)cc2)[C@@H](C)c2nc(-c3ccccc3)c[nH]2)cc1C(=O)O [Cpd 261]
Ki (mu opioid receptor; read-out: r Ki μ): 0.79 nM

Cc1cc(O)cc(C)c1C[C@H](N)C(=O)N(Cc1nc(-c2ccc(F)cc2)c(C)[nH]1)C(C)C [Cpd 163]
Ki (mu opioid receptor; read-out: r Ki μ): 0.03 nM | EC50 [2]: 21 nM

COc1ccc(CN(C(=O)[C@@H](N)Cc2c(C)cc(O)cc2C)[C@@H](C)c2nc(-c3ccccc3)c[nH]2)cc1C(=O)O [Cpd 260]
Ki (mu opioid receptor; read-out: r Ki μ): 0.24 nM

COc1ccc(CN(C(=O)[C@@H](N)Cc2c(C)cc(C(N)=O)cc2C)[C@@H](C)c2nc(-c3ccccc3)c[nH]2)cc1-c1nnn[nH]1 [Cpd 8]
Ki (mu opioid receptor; read-out: r Ki μ): 0.51 nM

CCN(C(=O)[C@@H](N)Cc1c(C)cc(O)cc1C)[C@H](C)c1nc(-c2ccccc2)c[nH]1 [Cpd 217]
Ki (mu opioid receptor; read-out: r Ki μ): 1.08 nM | EC50 [2]: 82 nM

COC(=O)c1ccc(CN(C(=O)[C@@H](N)Cc2c(C)cc(C(N)=O)cc2C)[C@@H](C)c2nc(-c3ccccc3)c[nH]2)o1 [Cpd 257]
Ki (mu opioid receptor; read-out: r Ki μ): 1.22 nM

CC(C)N(Cc1nc(-c2ccccc2)c[nH]1)C(=O)[C@@H](N)Cc1ccc(O)cc1 [Cpd 195]
Ki (mu opioid receptor; read-out: r Ki μ): 9.29 nM

Cc1cc(C(N)=O)cc(C)c1C[C@H](N)C(=O)N(Cc1ccc(C(=O)O)cc1)[C@@H](C)c1nc(-c2ccccc2)c[nH]1 [Cpd 50]
Ki (mu opioid receptor; read-out: r Ki μ): 1.68 nM | Fecal Output (# pellets) cpd [1]: 3.3 pellets | response vs control in vivo at 30 mg/kg [1, 7]: 144% | response vs control in vivo at 30 mg/kg [1, 3]: 47.1%

COC(=O)c1ccc(CN(C(=O)[C@@H](N)Cc2ccc(C(N)=O)cc2)[C@@H](C)c2nc(-c3ccccc3)c[nH]2)o1 [Cpd 303]
Ki (mu opioid receptor; read-out: r Ki μ): 3.87 nM

Cc1cc(C(N)=O)cc(C)c1C[C@H](N)C(=O)N(Cc1cccc(C(=O)O)c1)[C@@H](C)c1nc(-c2ccccc2)c[nH]1 [Cpd 227]
Ki (mu opioid receptor; read-out: r Ki μ): 0.96 nM

Cc1cc(O)cc(C)c1C[C@H](N)C(=O)N(Cc1cccc(C(=O)O)c1)[C@@H](C)c1nc(-c2ccccc2)c[nH]1 [Cpd 48]
Ki (mu opioid receptor; read-out: r Ki μ): 0.14 nM

Cc1cc(C(N)=O)cc(C)c1C[C@H](N)C(=O)N(Cc1cccc(-c2nnn[nH]2)c1)[C@@H](C)c1nc(-c2ccccc2)c[nH]1 [Cpd 242]
Ki (mu opioid receptor; read-out: r Ki μ): 0.59 nM

COc1ccc(CN(Cc2nc(-c3ccccc3)c[nH]2)C(=O)[C@@H](N)Cc2ccc(C(N)=O)cc2)cc1C(=O)O [Cpd 5]
Ki (mu opioid receptor; read-out: r Ki μ): 1.19 nM

Cc1ccccc1-c1nc(CN(C(=O)[C@@H](N)Cc2c(C)cc(O)cc2C)C(C)C)[nH]c1C [Cpd 165]
Ki (mu opioid receptor; read-out: r Ki μ): 0.07 nM | EC50 [2]: 231 nM

COc1ccc(CN(C(=O)[C@@H](N)Cc2c(C)cc(C(N)=O)cc2C)[C@@H](C)c2nc(-c3ccc(I)cc3)c[nH]2)cc1C(=O)O [Cpd 289]
Ki (mu opioid receptor; read-out: r Ki μ): 0.25 nM
